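Assay format: 96-well plates, 48-hour exposure. TGI: total growth inhibition.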
What was measured:
Test in all cases: DTP human tumour cell line panel, 48 h
CAKI-1 renal = tested on: CAKI-1 renal
XF 498 CNS = tested on: XF 498 CNS
KM12 colon = tested on: KM12 colon
KM20L2 colon = tested on: KM20L2 colon
OVCAR-4 ovarian = tested on: OVCAR-4 ovarian
SF-295 CNS = tested on: SF-295 CNS
OVCAR-8 ovarian = tested on: OVCAR-8 ovarian
DMS 114 small cell lung = tested on: DMS 114 small cell lung
NCI-H23 lung = tested on: NCI-H23 lung
NCI-H522 lung = tested on: NCI-H522 lung
RPMI-8226 leukemia = tested on: RPMI-8226 leukemia
SK-MEL-2 melanoma = tested on: SK-MEL-2 melanoma
OVCAR-3 ovarian = tested on: OVCAR-3 ovarian
SNB-78 CNS = tested on: SNB-78 CNS
DMS 273 small cell lung = tested on: DMS 273 small cell lung
M14 melanoma = tested on: M14 melanoma
HOP-18 NSCLC = tested on: HOP-18 NSCLC
SN12C renal = tested on: SN12C renal
MOLT-4 leukemia = tested on: MOLT-4 leukemia
MALME-3M melanoma = tested on: MALME-3M melanoma
HOP-62 NSCLC = tested on: HOP-62 NSCLC
SK-OV-3 ovarian = tested on: SK-OV-3 ovarian
SF-539 CNS = tested on: SF-539 CNS
HCT-116 colon = tested on: HCT-116 colon
NCI-H226 lung = tested on: NCI-H226 lung
LOX IMVI melanoma = tested on: LOX IMVI melanoma
786-0 renal = tested on: 786-0 renal
SK-MEL-28 melanoma = tested on: SK-MEL-28 melanoma
IGROV1 ovarian = tested on: IGROV1 ovarian
U251 CNS = tested on: U251 CNS
HT29 colon = tested on: HT29 colon
EKVX NSCLC = tested on: EKVX NSCLC
SK-MEL-5 melanoma = tested on: SK-MEL-5 melanoma
LXFL 529 NSCLC = tested on: LXFL 529 NSCLC
SF-268 CNS = tested on: SF-268 CNS
A498 renal = tested on: A498 renal
SNB-75 CNS = tested on: SNB-75 CNS
M19-MEL melanoma = tested on: M19-MEL melanoma
HCT-15 colon = tested on: HCT-15 colon
UACC-257 melanoma = tested on: UACC-257 melanoma
ACHN renal = tested on: ACHN renal
HCC-2998 colon = tested on: HCC-2998 colon
SW-620 colon = tested on: SW-620 colon
OVCAR-5 ovarian = tested on: OVCAR-5 ovarian
COLO 205 colon = tested on: COLO 205 colon
RXF 393 renal = tested on: RXF 393 renal
TK-10 renal = tested on: TK-10 renal
K-562 leukemia = tested on: K-562 leukemia
UACC-62 melanoma = tested on: UACC-62 melanoma
SNB-19 CNS = tested on: SNB-19 CNS
UO-31 renal = tested on: UO-31 renal
RXF-631 renal = tested on: RXF-631 renal
NCI-H460 lung = tested on: NCI-H460 lung
HOP-92 NSCLC = tested on: HOP-92 NSCLC
DLD-1 colon = tested on: DLD-1 colon
SR leukemia = tested on: SR leukemia
CCRF-CEM leukemia = tested on: CCRF-CEM leukemia
A549 NSCLC = tested on: A549 NSCLC
HL-60(TB) leukemia = tested on: HL-60(TB) leukemia

Cc1ccc2nc(NC(=O)C(=O)C(C#N)c3nc4ccccc4s3)sc2c1 (stereo unspecified)
TGI (CAKI-1 renal): 94.3 µM | TGI (XF 498 CNS): 63.9 µM | TGI (KM12 colon): > 100 µM | TGI (KM20L2 colon): > 100 µM | TGI (OVCAR-4 ovarian): > 100 µM | TGI (SF-295 CNS): > 100 µM | TGI (OVCAR-8 ovarian): > 100 µM | TGI (DMS 114 small cell lung): 70.1 µM | TGI (NCI-H23 lung): 83.9 µM | TGI (NCI-H522 lung): > 100 µM | TGI (RPMI-8226 leukemia): 64.8 µM | TGI (SK-MEL-2 melanoma): > 100 µM | TGI (OVCAR-3 ovarian): 56.3 µM | TGI (SNB-78 CNS): > 100 µM | TGI (DMS 273 small cell lung): > 100 µM | TGI (M14 melanoma): > 100 µM | TGI (HOP-18 NSCLC): > 100 µM | TGI (SN12C renal): > 100 µM | TGI (MOLT-4 leukemia): 51.4 µM | TGI (MALME-3M melanoma): > 100 µM | TGI (HOP-62 NSCLC): 31.9 µM | TGI (SK-OV-3 ovarian): > 100 µM | TGI (SF-539 CNS): 40.7 µM | TGI (HCT-116 colon): > 100 µM | TGI (NCI-H226 lung): 89.3 µM | TGI (LOX IMVI melanoma): > 100 µM | TGI (786-0 renal): > 100 µM | TGI (SK-MEL-28 melanoma): > 100 µM | TGI (IGROV1 ovarian): 51.8 µM | TGI (U251 CNS): > 100 µM | TGI (HT29 colon): > 100 µM | TGI (EKVX NSCLC): > 100 µM | TGI (SK-MEL-5 melanoma): 45.7 µM | TGI (LXFL 529 NSCLC): > 100 µM | TGI (SF-268 CNS): > 100 µM | TGI (A498 renal): 37.8 µM | TGI (SNB-75 CNS): > 100 µM | TGI (M19-MEL melanoma): > 100 µM | TGI (HCT-15 colon): > 100 µM | TGI (UACC-257 melanoma): 87.6 µM | TGI (ACHN renal): > 100 µM | TGI (HCC-2998 colon): > 100 µM | TGI (SW-620 colon): > 100 µM | TGI (OVCAR-5 ovarian): > 100 µM | TGI (COLO 205 colon): 38.4 µM | TGI (RXF 393 renal): 90.9 µM | TGI (TK-10 renal): 85.3 µM | TGI (K-562 leukemia): 76.6 µM | TGI (UACC-62 melanoma): > 100 µM | TGI (SNB-19 CNS): 83.6 µM | TGI (UO-31 renal): > 100 µM | TGI (RXF-631 renal): > 100 µM | TGI (NCI-H460 lung): > 100 µM | TGI (HOP-92 NSCLC): 75.3 µM

Cn1cc2ccccc2c1-c1nc(F)nc(F)n1
TGI (CAKI-1 renal): > 100 µM | TGI (XF 498 CNS): 90.6 µM | TGI (KM12 colon): > 100 µM | TGI (KM20L2 colon): > 100 µM | TGI (OVCAR-4 ovarian): > 100 µM | TGI (SF-295 CNS): > 100 µM | TGI (DMS 114 small cell lung): > 100 µM | TGI (NCI-H23 lung): > 100 µM | TGI (NCI-H522 lung): > 100 µM | TGI (RPMI-8226 leukemia): 90.5 µM | TGI (SK-MEL-2 melanoma): > 100 µM | TGI (OVCAR-3 ovarian): > 100 µM | TGI (SNB-78 CNS): > 100 µM | TGI (DMS 273 small cell lung): > 100 µM | TGI (M14 melanoma): > 100 µM | TGI (SN12C renal): > 100 µM | TGI (MOLT-4 leukemia): > 100 µM | TGI (MALME-3M melanoma): > 100 µM | TGI (HOP-62 NSCLC): > 100 µM | TGI (SK-OV-3 ovarian): > 100 µM | TGI (SF-539 CNS): > 100 µM | TGI (HCT-116 colon): > 100 µM | TGI (NCI-H226 lung): > 100 µM | TGI (LOX IMVI melanoma): > 100 µM | TGI (786-0 renal): > 100 µM | TGI (SK-MEL-28 melanoma): > 100 µM | TGI (DLD-1 colon): > 100 µM | TGI (IGROV1 ovarian): > 100 µM | TGI (U251 CNS): > 100 µM | TGI (HT29 colon): > 100 µM | TGI (EKVX NSCLC): > 100 µM | TGI (SK-MEL-5 melanoma): > 100 µM | TGI (SR leukemia): > 100 µM | TGI (LXFL 529 NSCLC): > 100 µM | TGI (SF-268 CNS): > 100 µM | TGI (A498 renal): > 100 µM | TGI (SNB-75 CNS): > 100 µM | TGI (M19-MEL melanoma): > 100 µM | TGI (HCT-15 colon): > 100 µM | TGI (ACHN renal): > 100 µM | TGI (HCC-2998 colon): > 100 µM | TGI (CCRF-CEM leukemia): > 100 µM | TGI (SW-620 colon): > 100 µM | TGI (OVCAR-5 ovarian): > 100 µM | TGI (COLO 205 colon): > 100 µM | TGI (RXF 393 renal): > 100 µM | TGI (A549 NSCLC): > 100 µM | TGI (TK-10 renal): > 100 µM | TGI (K-562 leukemia): > 100 µM | TGI (HL-60(TB) leukemia): > 100 µM | TGI (SNB-19 CNS): > 100 µM | TGI (UO-31 renal): > 100 µM | TGI (NCI-H460 lung): > 100 µM | TGI (HOP-92 NSCLC): > 100 µM

C/C(CC(=O)Nc1ccc([N+](=O)[O-])cc1)=N\NC(N)=O
TGI (CAKI-1 renal): > 100 µM | TGI (XF 498 CNS): > 100 µM | TGI (KM12 colon): > 100 µM | TGI (KM20L2 colon): > 100 µM | TGI (OVCAR-4 ovarian): > 100 µM | TGI (SF-295 CNS): > 100 µM | TGI (OVCAR-8 ovarian): > 100 µM | TGI (DMS 114 small cell lung): > 62.6 µM | TGI (NCI-H23 lung): > 100 µM | TGI (NCI-H522 lung): > 100 µM | TGI (RPMI-8226 leukemia): > 69.5 µM | TGI (SK-MEL-2 melanoma): > 100 µM | TGI (OVCAR-3 ovarian): > 100 µM | TGI (SNB-78 CNS): > 100 µM | TGI (DMS 273 small cell lung): > 100 µM | TGI (M14 melanoma): > 100 µM | TGI (HOP-18 NSCLC): > 100 µM | TGI (SN12C renal): > 100 µM | TGI (MOLT-4 leukemia): > 100 µM | TGI (MALME-3M melanoma): > 100 µM | TGI (HOP-62 NSCLC): > 100 µM | TGI (SK-OV-3 ovarian): > 100 µM | TGI (SF-539 CNS): > 100 µM | TGI (HCT-116 colon): > 100 µM | TGI (NCI-H226 lung): > 100 µM | TGI (LOX IMVI melanoma): > 100 µM | TGI (786-0 renal): > 100 µM | TGI (SK-MEL-28 melanoma): > 100 µM | TGI (DLD-1 colon): > 100 µM | TGI (IGROV1 ovarian): > 100 µM | TGI (U251 CNS): > 100 µM | TGI (HT29 colon): > 100 µM | TGI (EKVX NSCLC): > 100 µM | TGI (SK-MEL-5 melanoma): > 100 µM | TGI (SR leukemia): 45.8 µM | TGI (LXFL 529 NSCLC): > 100 µM | TGI (SF-268 CNS): > 100 µM | TGI (A498 renal): > 100 µM | TGI (SNB-75 CNS): > 100 µM | TGI (M19-MEL melanoma): > 100 µM | TGI (HCT-15 colon): > 100 µM | TGI (UACC-257 melanoma): > 100 µM | TGI (ACHN renal): > 100 µM | TGI (HCC-2998 colon): > 100 µM | TGI (CCRF-CEM leukemia): > 71.4 µM | TGI (SW-620 colon): > 100 µM | TGI (OVCAR-5 ovarian): > 100 µM | TGI (COLO 205 colon): > 100 µM | TGI (RXF 393 renal): > 100 µM | TGI (A549 NSCLC): > 100 µM | TGI (TK-10 renal): > 100 µM | TGI (K-562 leukemia): > 100 µM | TGI (HL-60(TB) leukemia): > 100 µM | TGI (UACC-62 melanoma): > 100 µM | TGI (SNB-19 CNS): > 100 µM | TGI (UO-31 renal): > 100 µM | TGI (NCI-H460 lung): > 100 µM | TGI (HOP-92 NSCLC): > 100 µM

— PubChem BioAssay (NCI)
